# In ChEMBL document CHEMBL4507301 (2021):
# Columns and labels:
# [1] = biological target: Serine/threonine-protein kinase Nek10 (Homo sapiens) (UniProt Q6ZWH5); details: Compound concentration 1000.0 nM
# [2] = biological target: Macrophage-stimulating protein receptor (Homo sapiens) (UniProt Q04912); details: Compound concentration 1000.0 nM
# [3] = biological target: Dual specificity tyrosine-phosphorylation-regulated kinase 1B (Homo sapiens) (UniProt Q9Y463); details: Compound concentration 1000.0 nM
# [4] = biological target: 5-hydroxytryptamine receptor 2B (Homo sapiens) (UniProt P41595); details: Compound concentration 10.0 uM
# [5] = test system: Epidermal growth factor receptor (Homo sapiens), P00533 [UNDEFINED MUTATION]; details: Compound concentration 1000.0 nM
# [6] = biological target: Beta-adrenergic receptor kinase 1 (Homo sapiens) (UniProt P25098); details: Compound concentration 1000.0 nM
# [7] = biological target: Serine/threonine-protein kinase ULK3 (Homo sapiens) (UniProt Q6PHR2); details: Compound concentration 1000.0 nM
# [8] = test system: Phosphatidylinositol 4,5-bisphosphate 3-kinase catalytic subunit alpha isoform (Homo sapiens), P42336 [E545A]; details: Compound concentration 1000.0 nM
# [9] = biological target: Dual specificity mitogen-activated protein kinase kinase 4 (Homo sapiens) (UniProt P45985); details: Compound concentration 1000.0 nM
# [10] = biological target: Serine/threonine-protein kinase PAK 3 (Homo sapiens) (UniProt O75914); details: Compound concentration 1000.0 nM
# [11] = biological target: Serine/threonine-protein kinase WNK2 (Homo sapiens) (UniProt Q9Y3S1); details: Compound concentration 1000.0 nM
# [12] = biological target: Serine/threonine-protein kinase BRSK2 (Homo sapiens) (UniProt Q8IWQ3); details: Compound concentration 1000.0 nM
# [13] = biological target: Tyrosine-protein kinase ABL1 (Homo sapiens) (UniProt P00519); details: Compound concentration 1000.0 nM
# [14] = biological target: Myosin light chain kinase 2, skeletal/cardiac muscle (Homo sapiens) (UniProt Q9H1R3); details: Compound concentration 1000.0 nM
# [15] = biological target: G protein-coupled receptor kinase 4 (Homo sapiens) (UniProt P32298); details: Compound concentration 1000.0 nM
# [16] = biological target: Tyrosine-protein kinase Fgr (Homo sapiens) (UniProt P09769); details: Compound concentration 1000.0 nM
# [17] = biological target: Serine/threonine-protein kinase SIK3 (Homo sapiens) (UniProt Q9Y2K2); details: Compound concentration 1000.0 nM
# [18] = test system: Mast/stem cell growth factor receptor Kit (Homo sapiens), P10721 [A829P]; details: Compound concentration 1000.0 nM
# [19] = test system: Receptor-type tyrosine-protein kinase FLT3 (Homo sapiens), P36888 [UNDEFINED MUTATION]; details: Compound concentration 1000.0 nM
# [20] = test system: Phosphatidylinositol 4,5-bisphosphate 3-kinase catalytic subunit alpha isoform (Homo sapiens), P42336 [E545K]; details: Compound concentration 1000.0 nM
# [21] = biological target: Calcium/calmodulin-dependent protein kinase type 1D (Homo sapiens) (UniProt Q8IU85); details: Compound concentration 1000.0 nM
# [22] = biological target: Serine/threonine-protein kinase 16 (Homo sapiens) (UniProt O75716); details: Compound concentration 1000.0 nM
# [23] = biological target: Homeodomain-interacting protein kinase 2 (Homo sapiens) (UniProt Q9H2X6); details: Compound concentration 1000.0 nM
# [24] = biological target: Ribosomal protein S6 kinase alpha-6 (Homo sapiens) (UniProt Q9UK32); details: Compound concentration 1000.0 nM
# [25] = biological target: Megakaryocyte-associated tyrosine-protein kinase (Homo sapiens) (UniProt P42679); details: Compound concentration 1000.0 nM
# [26] = biological target: Mitogen-activated protein kinase kinase kinase 20 (Homo sapiens) (UniProt Q9NYL2); details: Compound concentration 1000.0 nM
# [27] = biological target: Phosphatidylinositol 3-kinase catalytic subunit type 3 (Homo sapiens) (UniProt Q8NEB9); details: Compound concentration 1000.0 nM
# [28] = biological target: Ankyrin repeat and protein kinase domain-containing protein 1 (Homo sapiens) (UniProt Q8NFD2); details: Compound concentration 1000.0 nM
# [29] = biological target: 1-phosphatidylinositol 3-phosphate 5-kinase (Homo sapiens) (UniProt Q9Y2I7); details: Compound concentration 1000.0 nM
# [30] = biological target: Cyclin-dependent kinase 4 (Homo sapiens) (UniProt P11802); details: Compound concentration 1000.0 nM
# [31] = biological target: Tyrosine-protein kinase receptor Tie-1 (Homo sapiens) (UniProt P35590); details: Compound concentration 1000.0 nM
# [32] = biological target: Tyrosine-protein kinase Lck (Homo sapiens) (UniProt P06239); details: Compound concentration 1000.0 nM
# [33] = biological target: Activin receptor type-2B (Homo sapiens) (UniProt Q13705); details: Compound concentration 1000.0 nM
# [34] = biological target: Protein kinase C iota type (Homo sapiens) (UniProt P41743); details: Compound concentration 1000.0 nM
# [35] = biological target: Mitogen-activated protein kinase kinase kinase kinase 3 (Homo sapiens) (UniProt Q8IVH8); details: Compound concentration 1000.0 nM
# [36] = biological target: Receptor tyrosine-protein kinase erbB-3 (Homo sapiens) (UniProt P21860); details: Compound concentration 1000.0 nM
# [37] = biological target: Serine/threonine-protein kinase LATS2 (Homo sapiens) (UniProt Q9NRM7); details: Compound concentration 1000.0 nM
# [38] = biological target: Tyrosine-protein kinase BTK (Homo sapiens) (UniProt Q06187); details: Compound concentration 1000.0 nM
# [39] = biological target: Serine/threonine-protein kinase NIM1 (Homo sapiens) (UniProt Q8IY84); details: Compound concentration 1000.0 nM
# [40] = biological target: Homeodomain-interacting protein kinase 3 (Homo sapiens) (UniProt Q9H422); details: Compound concentration 1000.0 nM
# [41] = biological target: Misshapen-like kinase 1 (Homo sapiens) (UniProt Q8N4C8); details: Compound concentration 1000.0 nM
# [42] = biological target: Tyrosine-protein kinase receptor UFO (Homo sapiens) (UniProt P30530); details: Compound concentration 1000.0 nM
# [43] = biological target: Cyclin-dependent kinase 16 (Homo sapiens) (UniProt Q00536); details: Compound concentration 1000.0 nM
# [44] = biological target: Mitogen-activated protein kinase kinase kinase 2 (Homo sapiens) (UniProt Q9Y2U5); details: Compound concentration 1000.0 nM
# Chain of Ribosomal protein S6 kinase alpha-6 (Homo sapiens) (Q9UK32 whole entry): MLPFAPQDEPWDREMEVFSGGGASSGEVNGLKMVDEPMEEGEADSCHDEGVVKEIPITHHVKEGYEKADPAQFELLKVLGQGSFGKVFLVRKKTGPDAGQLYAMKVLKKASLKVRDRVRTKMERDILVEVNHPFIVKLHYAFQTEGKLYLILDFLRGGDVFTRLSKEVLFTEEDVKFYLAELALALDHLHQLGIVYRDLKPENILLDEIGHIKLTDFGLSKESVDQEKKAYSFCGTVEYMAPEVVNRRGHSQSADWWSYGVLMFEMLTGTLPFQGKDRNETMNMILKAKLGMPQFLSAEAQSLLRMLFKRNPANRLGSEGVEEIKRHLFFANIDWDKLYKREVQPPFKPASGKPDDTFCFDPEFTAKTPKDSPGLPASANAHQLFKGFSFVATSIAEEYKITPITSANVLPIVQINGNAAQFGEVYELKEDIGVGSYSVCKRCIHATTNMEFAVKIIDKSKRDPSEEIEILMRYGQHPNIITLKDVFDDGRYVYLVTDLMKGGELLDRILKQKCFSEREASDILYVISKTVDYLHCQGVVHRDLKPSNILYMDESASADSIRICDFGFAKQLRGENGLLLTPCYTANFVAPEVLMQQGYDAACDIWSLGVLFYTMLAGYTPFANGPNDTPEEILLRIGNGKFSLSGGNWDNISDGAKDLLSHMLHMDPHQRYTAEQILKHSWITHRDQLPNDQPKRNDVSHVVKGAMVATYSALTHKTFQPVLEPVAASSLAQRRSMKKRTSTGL
# Chain of Tyrosine-protein kinase Lck (Homo sapiens) (P06239 2-509 limits assumed): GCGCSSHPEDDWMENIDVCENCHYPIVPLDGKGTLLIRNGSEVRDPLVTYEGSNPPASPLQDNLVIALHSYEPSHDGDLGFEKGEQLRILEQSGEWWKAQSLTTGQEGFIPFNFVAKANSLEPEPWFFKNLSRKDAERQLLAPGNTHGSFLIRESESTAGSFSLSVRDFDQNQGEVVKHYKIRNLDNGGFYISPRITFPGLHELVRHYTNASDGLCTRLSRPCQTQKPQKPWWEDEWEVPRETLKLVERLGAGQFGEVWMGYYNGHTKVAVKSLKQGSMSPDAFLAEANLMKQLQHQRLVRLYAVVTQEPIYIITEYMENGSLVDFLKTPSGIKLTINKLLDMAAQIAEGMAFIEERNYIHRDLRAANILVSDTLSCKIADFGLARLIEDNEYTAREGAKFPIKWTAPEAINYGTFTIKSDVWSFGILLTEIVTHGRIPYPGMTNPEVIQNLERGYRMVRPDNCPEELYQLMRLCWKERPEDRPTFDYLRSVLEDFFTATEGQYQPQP
# Chain of Dual specificity mitogen-activated protein kinase kinase 4 (Homo sapiens) (P45985 whole entry): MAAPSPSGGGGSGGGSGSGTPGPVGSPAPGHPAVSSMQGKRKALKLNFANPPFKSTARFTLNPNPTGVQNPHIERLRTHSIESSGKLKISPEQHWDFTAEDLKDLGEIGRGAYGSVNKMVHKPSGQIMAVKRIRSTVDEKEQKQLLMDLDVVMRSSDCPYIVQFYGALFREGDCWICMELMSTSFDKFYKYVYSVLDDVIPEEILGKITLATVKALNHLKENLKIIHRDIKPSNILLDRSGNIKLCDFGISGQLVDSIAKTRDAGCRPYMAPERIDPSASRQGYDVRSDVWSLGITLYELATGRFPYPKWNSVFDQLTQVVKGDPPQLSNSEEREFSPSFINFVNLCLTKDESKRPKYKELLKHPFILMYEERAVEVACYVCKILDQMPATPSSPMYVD
# Chain of Activin receptor type-2B (Homo sapiens) (Q13705 whole entry): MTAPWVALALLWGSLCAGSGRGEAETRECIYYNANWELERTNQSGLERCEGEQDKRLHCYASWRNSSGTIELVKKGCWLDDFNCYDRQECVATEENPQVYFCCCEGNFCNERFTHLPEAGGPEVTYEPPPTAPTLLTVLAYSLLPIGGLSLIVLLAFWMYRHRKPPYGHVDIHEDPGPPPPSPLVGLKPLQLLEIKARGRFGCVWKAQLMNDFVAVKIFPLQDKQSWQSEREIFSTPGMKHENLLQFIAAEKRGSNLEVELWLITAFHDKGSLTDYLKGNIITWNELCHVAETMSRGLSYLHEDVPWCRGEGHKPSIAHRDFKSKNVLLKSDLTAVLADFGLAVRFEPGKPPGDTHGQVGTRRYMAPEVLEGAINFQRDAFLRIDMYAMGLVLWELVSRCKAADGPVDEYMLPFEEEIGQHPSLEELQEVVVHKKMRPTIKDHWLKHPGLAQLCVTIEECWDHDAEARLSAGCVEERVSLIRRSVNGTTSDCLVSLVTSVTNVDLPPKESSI
# Chain of Receptor-type tyrosine-protein kinase FLT3 (Homo sapiens), P36888 [UNDEFINED MUTATION] (P36888 whole entry, looked up, stated change not applied, canonical isoform): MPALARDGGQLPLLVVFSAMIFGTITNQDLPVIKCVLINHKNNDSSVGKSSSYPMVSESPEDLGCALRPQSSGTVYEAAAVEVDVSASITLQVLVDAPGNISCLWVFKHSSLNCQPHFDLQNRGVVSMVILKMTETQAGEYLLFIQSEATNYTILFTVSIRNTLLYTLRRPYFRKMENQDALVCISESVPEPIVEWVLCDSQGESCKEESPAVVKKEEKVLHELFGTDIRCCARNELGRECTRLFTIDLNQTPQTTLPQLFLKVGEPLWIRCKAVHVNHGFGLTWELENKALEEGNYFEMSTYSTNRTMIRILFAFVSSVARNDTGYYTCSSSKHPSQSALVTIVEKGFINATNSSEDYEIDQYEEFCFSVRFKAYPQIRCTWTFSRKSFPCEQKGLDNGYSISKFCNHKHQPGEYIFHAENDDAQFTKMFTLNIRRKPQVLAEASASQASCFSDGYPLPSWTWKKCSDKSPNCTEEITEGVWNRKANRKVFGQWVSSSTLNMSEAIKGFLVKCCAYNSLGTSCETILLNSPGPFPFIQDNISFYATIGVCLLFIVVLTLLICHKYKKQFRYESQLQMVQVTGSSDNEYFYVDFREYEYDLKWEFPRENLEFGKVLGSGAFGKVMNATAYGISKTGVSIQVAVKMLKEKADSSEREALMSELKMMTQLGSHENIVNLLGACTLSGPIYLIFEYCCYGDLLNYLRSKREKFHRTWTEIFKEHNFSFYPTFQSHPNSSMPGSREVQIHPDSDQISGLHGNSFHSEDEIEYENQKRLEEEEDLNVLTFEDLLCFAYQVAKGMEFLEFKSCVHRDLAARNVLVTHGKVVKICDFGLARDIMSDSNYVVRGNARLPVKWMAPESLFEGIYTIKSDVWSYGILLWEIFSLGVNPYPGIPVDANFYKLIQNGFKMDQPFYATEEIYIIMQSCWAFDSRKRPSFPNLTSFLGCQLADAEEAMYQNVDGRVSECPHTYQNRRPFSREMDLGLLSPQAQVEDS
# Chain of Tyrosine-protein kinase ABL1 (Homo sapiens) (P00519 whole entry): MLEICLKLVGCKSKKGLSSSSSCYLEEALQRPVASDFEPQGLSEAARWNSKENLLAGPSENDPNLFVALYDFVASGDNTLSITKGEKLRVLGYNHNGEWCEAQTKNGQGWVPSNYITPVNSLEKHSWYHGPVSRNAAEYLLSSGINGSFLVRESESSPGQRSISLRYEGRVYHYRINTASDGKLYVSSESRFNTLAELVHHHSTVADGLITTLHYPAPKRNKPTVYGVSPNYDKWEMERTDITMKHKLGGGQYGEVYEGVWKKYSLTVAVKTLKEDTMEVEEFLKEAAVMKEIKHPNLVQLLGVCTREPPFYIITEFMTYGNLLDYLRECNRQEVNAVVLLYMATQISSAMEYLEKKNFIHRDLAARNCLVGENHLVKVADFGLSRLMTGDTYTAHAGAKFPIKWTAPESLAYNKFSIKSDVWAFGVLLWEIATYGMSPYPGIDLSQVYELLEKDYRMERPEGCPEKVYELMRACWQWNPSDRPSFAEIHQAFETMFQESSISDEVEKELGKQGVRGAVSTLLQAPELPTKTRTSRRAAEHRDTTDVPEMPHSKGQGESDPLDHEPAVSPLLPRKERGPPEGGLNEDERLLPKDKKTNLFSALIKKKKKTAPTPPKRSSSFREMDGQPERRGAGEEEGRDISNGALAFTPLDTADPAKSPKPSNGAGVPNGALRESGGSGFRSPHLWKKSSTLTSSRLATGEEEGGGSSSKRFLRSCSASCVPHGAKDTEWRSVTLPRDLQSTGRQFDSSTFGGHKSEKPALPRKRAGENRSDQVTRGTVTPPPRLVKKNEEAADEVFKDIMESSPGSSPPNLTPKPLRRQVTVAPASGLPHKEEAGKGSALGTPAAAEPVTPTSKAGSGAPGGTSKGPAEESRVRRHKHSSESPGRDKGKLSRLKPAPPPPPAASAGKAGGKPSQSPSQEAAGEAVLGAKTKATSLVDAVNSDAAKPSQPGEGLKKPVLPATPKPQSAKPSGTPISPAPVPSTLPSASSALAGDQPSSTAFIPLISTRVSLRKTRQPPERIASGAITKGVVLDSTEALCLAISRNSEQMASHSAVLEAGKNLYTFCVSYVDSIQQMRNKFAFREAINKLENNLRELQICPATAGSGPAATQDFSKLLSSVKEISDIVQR
# Chain of Cyclin-dependent kinase 4 (Homo sapiens) (P11802 whole entry): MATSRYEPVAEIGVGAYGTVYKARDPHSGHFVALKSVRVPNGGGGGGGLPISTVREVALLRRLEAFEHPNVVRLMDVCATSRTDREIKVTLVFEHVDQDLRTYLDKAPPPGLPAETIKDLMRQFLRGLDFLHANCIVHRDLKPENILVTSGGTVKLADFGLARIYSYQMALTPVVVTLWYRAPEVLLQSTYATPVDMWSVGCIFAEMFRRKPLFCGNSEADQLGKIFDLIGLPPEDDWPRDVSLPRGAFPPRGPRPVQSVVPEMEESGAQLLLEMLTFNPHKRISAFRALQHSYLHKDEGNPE
# Chain of Calcium/calmodulin-dependent protein kinase type 1D (Homo sapiens) (Q8IU85 whole entry, looked up): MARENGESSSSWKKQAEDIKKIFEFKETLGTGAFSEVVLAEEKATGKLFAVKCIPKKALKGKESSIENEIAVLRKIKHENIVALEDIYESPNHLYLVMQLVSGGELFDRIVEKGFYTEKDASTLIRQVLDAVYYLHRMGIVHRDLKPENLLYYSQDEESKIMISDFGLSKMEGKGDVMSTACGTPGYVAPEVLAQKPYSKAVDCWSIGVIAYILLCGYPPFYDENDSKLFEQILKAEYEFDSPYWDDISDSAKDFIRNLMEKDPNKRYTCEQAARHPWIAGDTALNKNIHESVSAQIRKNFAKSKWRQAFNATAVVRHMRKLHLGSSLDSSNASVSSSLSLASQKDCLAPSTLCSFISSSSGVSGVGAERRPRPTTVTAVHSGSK
compound,measurement,setting,value
C[C@H](c1cccc(C#N)c1)n1cc(Cl)cc(C(N)=O)c1=N [(R)-9s],residual activity,[1],99%
same,residual activity,[2],100%
same,residual activity,[3],63%
same,inhibition,[4],9.88%
same,residual activity,[5],97%
same,residual activity,[6],81%
same,residual activity,[7],64%
same,residual activity,[8],100%
same,residual activity,[9],100%
same,residual activity,[10],88%
same,residual activity,[11],58%
same,residual activity,[12],85%
same,residual activity,[13],77%
same,residual activity,[14],100%
same,residual activity,[15],100%
same,residual activity,[16],80%
same,residual activity,[17],100%
same,residual activity,[18],95%
same,residual activity,[19],100%
same,residual activity,[20],82%
same,residual activity,[21],97%
same,residual activity,[22],100%
same,residual activity,[23],100%
same,residual activity,[24],91%
same,residual activity,[25],100%
same,residual activity,[26],86%
same,residual activity,[27],78%
same,residual activity,[28],98%
same,residual activity,[29],91%
same,residual activity,[30],96%
same,residual activity,[31],100%
same,residual activity,[32],100%
same,residual activity,[33],100%
same,residual activity,[34],100%
same,residual activity,[35],76%
same,residual activity,[36],92%
same,residual activity,[37],84%
same,residual activity,[38],91%
same,residual activity,[39],84%
same,residual activity,[40],81%
same,residual activity,[41],88%
same,residual activity,[42],100%
same,residual activity,[43],83%
same,residual activity,[44],100%
C[C@@H](c1cccc(C#N)c1)n1cc(Cl)cc(C(N)=O)c1=N [(S)-9s],residual activity,[1],91%
same,residual activity,[2],100%
same,residual activity,[3],37%
same,inhibition,[4],3.93%
same,residual activity,[5],90%
same,residual activity,[6],78%
same,residual activity,[7],75%
same,residual activity,[8],98%
same,residual activity,[9],82%
same,residual activity,[10],94%
same,residual activity,[11],67%
same,residual activity,[12],95%
same,residual activity,[13],73%
same,residual activity,[14],100%
same,residual activity,[15],99%
same,residual activity,[16],87%
same,residual activity,[17],94%
same,residual activity,[18],100%
same,residual activity,[19],98%
same,residual activity,[20],88%
same,residual activity,[21],98%
same,residual activity,[22],85%
same,residual activity,[23],100%
same,residual activity,[24],82%
same,residual activity,[25],100%
same,residual activity,[26],71%
same,residual activity,[27],97%
same,residual activity,[28],95%
same,residual activity,[29],100%
same,residual activity,[30],91%
same,residual activity,[31],87%
same,residual activity,[32],90%
same,residual activity,[33],100%
same,residual activity,[34],93%
same,residual activity,[35],100%
same,residual activity,[36],91%
same,residual activity,[37],80%
same,residual activity,[38],98%
same,residual activity,[39],97%
same,residual activity,[40],70%
same,residual activity,[41],96%
same,residual activity,[42],100%
same,residual activity,[43],96%
same,residual activity,[44],100%
